Among the data in patent US20250034165A1, “COMPOUND CONTAINING CYCLOALKYL OR HALOALKYL” (CHIA TAI TIANQING PHARMACEUTICAL GROUP CO., LTD., priority 2021, published 2025) are IC50 values, retold here.

A value given as a limit tells only on which side of the number the result lay.

In experiment [1] the target is EGFR (d746-750/T790M/C797S) (Homo sapiens (Human), UniProt P00533, C797S/DEL746-750/T790M). Description: Inhibitory activity for EGFR (d746-750/T790M/C797S) kinase. In kind it is biochemical. The settings on record: ATP 5 μM; read-out: EGFR(d19/T790M/C797S) (IC50). As for the experimental part: 1.5 Screening for Inhibitory Activity for EGFR (d746-750/T790M/C797S) Kinase
(§1) A 50 ng/μL EGFR (d746-750/T790M/C797S, BPS) stock solution was diluted with a kinase buffer (50 mM HEPES, 10 mM MgCl2, 2 mM DTT, 1 mM EGTA, 0.01% Tween 20), and 6 μL of 1.67× working solution at 0.05 ng/μL (final concentration: 0.03 ng/μL) was added to each well. Different compounds dissolved in DMSO were added to the wells using a nanoliter pipettor, resulting in the final concentrations of the compounds of 10 nM to 0.0024 nM (4-fold gradient for 7 concentrations in total), and blank control wells (without enzyme) and negative control wells (with enzyme, plus vehicle DMSO) were set, 2 replicate wells for each concentration. After enzyme was reacted with the compound or vehicle for 30 min, 5×ATP at 25 μM (final concentration: 5 μM, Sigma) prepared with a kinase buffer was mixed with 5× substrate at 0.5 μM (final concentration: 0.1 μM, ULight-poly GT, PerkinElmer) at a ratio of 1:1 (v:v), and the mixture was added to each well at 4 μL/well. After being sealed with a film, the plate was incubated at room temperature for 2 h, and then 5 μL of 4×EDTA at 40 mM (final concentration: 10 mM) was added to each well. After the plate was incubated for 5 min at room temperature, 5 μL of 4× detection reagent at 8 nM (final concentration: 2 nM, Eu-anti-phospho-tyrosine antibody, PerkinElmer) was added to each well. After being incubated at room temperature for 1 h, the plate was read using a PerkinElmer Envision multi-mode microplate reader (excitation: 320 nm, emission: 665 nm), and IC50 was calculated by four-parameter fitting.

For experiment [2], the system named is BAF3-EGFR (L858R/T790M/C797S) cells. Nature of the experiment: Inhibition of proliferation of BAF3-EGFR (L858R/T790M/C797S) cells, CCK-8. In kind it is cell-based. The settings on record: Ba/F3 EGFR, 72 h, read-out: BAF3(EGFR T790M L858R C797S) cell inhibitory activity IC50. As for the experimental part:
A flask of EGFR (L858R/T790M/C797S) cells in the logarithmic growth phase and good conditions was taken, and the cells were collected and added to a centrifuge tube. 20 μL of cells were taken and counted, and the required number of cells (mL) was pipetted and centrifuged at 1200 rpm for 3 min. The supernatant was discarded, and an appropriate amount of plating medium (RPMI medium+10% FBS) was added to adjust the cell density to 1.5×10^5 cells/mL. The cells were seeded on a 96-well plate at 100 μL/well using a multi-channel pipette and cultured in a cell incubator at 37° C., 5% CO2 with saturated humidity. After overnight incubation, compounds were loaded using a nanoliter pipettor, 2 duplicate wells were set for each concentration, and cells without compound added were used as negative controls.
Inhibition rate (%)=(mean value of negative control group-mean value of experimental group)/(mean value of negative control group−mean value of blank group)×100%.
A dose-response curve was fitted by four-parameter analysis, with the logarithm of compound concentration serving as abscissa and inhibition rate serving as ordinate, such that IC50 was calculated.

Experiment [3] addresses EGFR (d746-750 (d19)/T790M) (Homo sapiens (Human), UniProt P00533, DEL746-750/T790M). Description: Inhibitory activity for EGFR (d746-750 (d19)/T790M) kinase. In kind it is biochemical. Conditions: ATP 5 μM. Here is the method: 1.3 Screening for Inhibitory Activity for EGFR (d746-750 (d19)/T790M) Kinase
as §1, with “(d746-750/T790M, Carna)” for “(d746-750/T790M/C797S, BPS)”, “0.005” for “0.05”, “0.003” for “0.03”

Sequence of EGFR (d746-750 (d19)/T790M) (P00533 other isoform, or with tags, fused parts or gaps T790M/del 1-668/del 746-750 limits assumed): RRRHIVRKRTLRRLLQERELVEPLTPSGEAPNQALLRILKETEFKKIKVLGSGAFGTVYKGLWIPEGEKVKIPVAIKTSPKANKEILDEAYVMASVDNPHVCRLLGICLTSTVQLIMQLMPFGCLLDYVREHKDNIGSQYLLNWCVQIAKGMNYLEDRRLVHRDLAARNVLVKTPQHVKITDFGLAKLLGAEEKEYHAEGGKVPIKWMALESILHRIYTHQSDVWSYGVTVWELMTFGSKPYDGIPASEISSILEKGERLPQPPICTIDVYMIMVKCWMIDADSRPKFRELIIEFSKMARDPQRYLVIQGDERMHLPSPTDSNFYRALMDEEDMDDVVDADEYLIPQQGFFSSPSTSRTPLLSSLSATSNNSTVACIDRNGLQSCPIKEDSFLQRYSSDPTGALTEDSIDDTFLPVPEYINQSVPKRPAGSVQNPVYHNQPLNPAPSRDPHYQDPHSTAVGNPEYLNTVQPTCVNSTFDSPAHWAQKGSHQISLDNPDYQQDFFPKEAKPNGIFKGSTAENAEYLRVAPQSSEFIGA
Sequence of EGFR (d746-750/T790M/C797S) (P00533 other isoform, or with tags, fused parts or gaps T790M/C797S/del 1-694/del 746-750 limits assumed): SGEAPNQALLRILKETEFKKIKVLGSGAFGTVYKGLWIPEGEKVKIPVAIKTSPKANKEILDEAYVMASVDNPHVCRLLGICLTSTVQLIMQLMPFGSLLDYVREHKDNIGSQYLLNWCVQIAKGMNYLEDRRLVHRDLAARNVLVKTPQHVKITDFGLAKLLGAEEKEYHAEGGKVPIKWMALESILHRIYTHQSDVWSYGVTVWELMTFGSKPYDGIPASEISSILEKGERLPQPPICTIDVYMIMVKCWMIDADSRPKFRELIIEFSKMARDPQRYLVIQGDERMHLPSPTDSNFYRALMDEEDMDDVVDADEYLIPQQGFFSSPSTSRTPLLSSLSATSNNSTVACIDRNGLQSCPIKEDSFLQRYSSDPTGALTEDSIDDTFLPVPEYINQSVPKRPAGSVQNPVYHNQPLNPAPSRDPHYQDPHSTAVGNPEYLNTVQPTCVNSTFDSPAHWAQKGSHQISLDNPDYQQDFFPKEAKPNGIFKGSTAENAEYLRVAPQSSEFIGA

With `Cc1cc2cc(n1)-c1cnn(C)c1OCCC[C@@H](C1CC1)CN1/C(=N/C2=O)Nc2ccc(NC(=O)CN(C)C)cc21` [Example 111], the IC50 was 0.073 nM in experiment [1] and less than 5 nM in experiment [2]. On to `Cc1cc2cc(n1)-c1cnn(C)c1OCCC[C@@H](C1CC1)CN1/C(=N/C2=O)Nc2cc(NCCCCN(C)C)ccc21` [Example 51], for which the IC50 in experiment [1] is 0.02 nM; in experiment [2], less than 5 nM; in experiment [3], 0.013 nM. For the molecule `Cc1cc2cc(n1)-c1cnn(C)c1OCCC[C@@H](C1CC1)CN1/C(=N/C2=O)Nc2cc(N[C@@H]3CC[C@H](O)C3)ccc21` [Example 150], the IC50 in experiment [2] was less than 5 nM.

With `Cc1cc2cc(n1)-c1cnn(C)c1OCCC[C@@H](C1CC1)CN1/C(=N/C2=O)Nc2cc(NC3C(C)(C)OC3(C)C)ccc21` [Example 31], the IC50 in experiment [1] is 0.031 nM; in experiment [3], 0.018 nM. As for `Cc1cc2cc(n1)-c1cnn(C)c1OCCC[C@@H](C1CC1)CN1/C(=N/C2=O)Nc2cc(NCCN3CCCCC3)ccc21` [Example 73], the IC50 in experiment [2] is less than 5 nM. With `Cc1cc2cc(n1)-c1cnn(C)c1OCCC[C@@H](C1CC1)CN1/C(=N/C2=O)Nc2cc(N[C@@H]3CCOC3)ccc21` [Example 43], the IC50 in experiment [1] came to 0.026 nM; in experiment [3], 0.015 nM.

In experiment [3], `Cc1cc2cc(n1)-c1cnn(C)c1OCCC[C@@H](C1CC1)CN1/C(=N/C2=O)Nc2cc(NC3CC(N(C)C)C3)ccc21` (some centres unmarked) [Example 93] gave an IC50 of 0.11 nM.

As to `Cc1cc2cc(n1)-c1cnn(C)c1OCCC[C@@H](C1CC1)CN1/C(=N/C2=O)Nc2cc(N[C@@H](C)CCN3CCCCC3)ccc21` [Example 140], the IC50 in experiment [1] was 0.077 nM; in experiment [2], less than 5 nM. For the molecule `Cc1cc2cc(n1)-c1cnn(C)c1OCCC[C@@H](C1CC1)CN1/C(=N/C2=O)Nc2cc(NC3CCC3)ccc21` [Example 79], the IC50 in experiment [1] was 0.153 nM; in experiment [3] it was 0.028 nM.

Regarding `Cc1cc2cc(n1)-c1cnn(C)c1OCCC[C@@H](C1CC1)CN1/C(=N/C2=O)Nc2cc(NC3COC3(C)C)ccc21` (some centres unmarked) [Example 30], the results for the IC50 in experiment [1] and in experiment [3] were 0.046 nM and 0.03 nM, respectively.

Take `Cc1cc2cc(n1)-c1cnn(C)c1OCCC[C@@H](C1CC1)CN1/C(=N/C2=O)Nc2cc(NC3(C)CNC3)ccc21` [Example 34]: the IC50 is 0.016 nM in experiment [1] and 0.014 nM in experiment [3]. With `Cc1cc2cc(n1)-c1cnn(C)c1OCCC[C@@H](C1CC1)CN1/C(=N/C2=O)Nc2ccc(NC(=O)CCCN(C)C)cc21` [Example 113], the IC50 in experiment [1] was 0.066 nM. For `Cc1cc2cc(n1)-c1cnn(C)c1OCCC[C@@H](C1CC1)CN1/C(=N/C2=O)Nc2ccc(N[C@@H](C)CN3CCCCC3)cc21` [Example 142], the values for the IC50 in experiment [1] and in experiment [2] were 0.079 nM and less than 5 nM, respectively. For the molecule `Cc1cc2cc(n1)-c1cnn(C)c1OCCC[C@@H](C1CC1)CN1/C(=N/C2=O)Nc2ccc(NCCCN3CCCC3)cc21` [Example 84], the IC50 in experiment [1] stood at 0.042 nM; in experiment [3], 0.018 nM. The like results for `Cc1cc2cc(n1)-c1cnn(C3CC3)c1OCCC[C@@H](C)CN1/C(=N/C2=O)Nc2cc(NC3CCN(C)CC3)ccc21` [Example 12] were, in that order, 0.17 nM and 0.15 nM. For `Cc1cc2cc(n1)-c1cnn(C)c1OCCC[C@@H](C1CC1)CN1/C(=N/C2=O)Nc2cc(NCCCN)ccc21` [Example 50], in that order: 0.053 nM and 0.038 nM. For `Cc1cc2cc(n1)-c1cnn(C)c1OCCC[C@@H](C1CC1)CN1/C(=N/C2=O)Nc2cc(N[C@H](C)CN(C)C)ccc21` [Example 67], the IC50 was 0.083 nM in experiment [1] and less than 5 nM in experiment [2]. With `Cc1cc2cc(n1)-c1cnn(C3CC3)c1OCCC[C@@H](C)CN1/C(=N/C2=O)Nc2cc(NCCN3CCOCC3)ccc21` [Example 5], the IC50 was 0.074 nM in experiment [1] and 0.05 nM in experiment [3].

Turning to `Cc1cc2cc(n1)-c1cnn(C)c1OCCC[C@@H](C1CC1)CN1/C(=N/C2=O)Nc2ccc(N3CC[C@H](O)C3)cc21` [Example 21], the results for the IC50 in experiment [1] and in experiment [3] were 0.059 nM and 0.032 nM, respectively. The like results for `CNCCCNc1ccc2c(c1)N/C1=N\C(=O)c3cc(C)nc(c3)-c3cnn(C)c3OCCC[C@@H](C3CC3)CN12` [Example 49] were, in that order, 0.039 nM and 0.03 nM. On to `Cc1cc2cc(n1)-c1cnn(C)c1OCCC[C@@H](C1CC1)CN1/C(=N/C2=O)Nc2cc(NC[C@H]3COCCO3)ccc21` [Example 19], for which the IC50 in experiment [1] is 0.028 nM; in experiment [3], 0.015 nM. As for `Cc1cc2cc(n1)-c1cnn(C)c1OCCC[C@@H](C1CC1)CN1/C(=N/C2=O)Nc2cc(N[C@H](C)CN3CCCCC3)ccc21` [Example 137], the IC50 is 0.085 nM in experiment [1] and less than 5 nM in experiment [2]. On to `Cc1cc2cc(n1)-c1cnn(C)c1OCCC[C@@H](C1CC1)CN1/C(=N/C2=O)Nc2cc(NC3CC(F)C3)ccc21` (some centres unmarked) [Example 94], for which the IC50 in experiment [3] is 0.75 nM. As for `Cc1cc2cc(n1)-c1cnn(C3CC3)c1OCCC[C@@H](C)CN1/C(=N/C2=O)Nc2ccc(N3CC[C@H](O)C3)cc21` [Example 16], the IC50 in experiment [1] is 0.063 nM; in experiment [3], 0.06 nM. Consider `Cc1cc2cc(n1)-c1cnn(C)c1OCCC[C@@H](C1CC1)CN1/C(=N/C2=O)Nc2cc(NC3CNC3)ccc21` [Example 32], for which the IC50 in experiment [1] stood at 0.013 nM; in experiment [3], 0.01 nM. With `Cc1cc2cc(n1)-c1cnn(C)c1OCCC[C@@H](C1CC1)CN1/C(=N/C2=O)Nc2cc(N[C@@H](C)CN3CCCCC3)ccc21` [Example 138], the IC50 in experiment [1] was 0.087 nM; in experiment [2] it was less than 5 nM. Turning to `[2H]C([2H])([2H])N(C[C@@H](C)Nc1ccc2c(c1)N1C[C@H](C3CC3)CCCOc3c(cnn3C)-c3cc(cc(C)n3)C(=O)/N=C/1N2)C([2H])([2H])[2H]` [Example 145], the IC50 in experiment [2] is less than 5 nM. `Cc1cc2cc(n1)-c1cnn(C)c1OCCC[C@@H](C1CC1)CN1/C(=N/C2=O)Nc2cc(NCCN3CCOCC3)ccc21` [Example 3]: the IC50 in experiment [1] turned out to be 0.028 nM; in experiment [3], 0.014 nM. The like results for `Cc1cc2cc(n1)-c1cnn(C3CC3)c1OCCC[C@@H](C)CN1/C(=N/C2=O)Nc2cc(NC[C@H]3COCCO3)ccc21` [Example 14] were, in that order, 0.1 nM and 0.068 nM. For `Cc1cc2cc(n1)-c1cnn(C)c1OCCC[C@@H](C1CC1)CN1/C(=N/C2=O)Nc2cc(N[C@@H]3CCCOC3)ccc21` [Example 18], in that order: 0.042 nM and 0.02 nM. The like results for `Cc1cc2cc(n1)-c1cnn(C)c1OCCC[C@@H](C1CC1)CN1/C(=N/C2=O)Nc2ccc(NC3CCCC3)cc21` [Example 87] were, in that order, 0.318 nM and 0.058 nM.

As for `Cc1cc2cc(n1)-c1cnn(C3CC3)c1OCCC[C@@H](C)CN1/C(=N/C2=O)Nc2cc(N[C@@H]3CCOC3)ccc21` [Example 13], the IC50 in experiment [1] amounted to 0.11 nM; in experiment [3] it was 0.058 nM.
